Laboratory results reported in ChEMBL document CHEMBL4706559, “New indolylarylsulfone non-nucleoside reverse transcriptase inhibitors show low nanomolar inhibition of single and double HIV-1 mutant strains” (Eur J Med Chem, 2020).

Columns and labels:
[1] = test system: Human immunodeficiency virus 1; assay: Antiviral activity against HIV-1 NL4-3 infected in human MT-4 cells assessed as virus induced cytopathic effect by MTT assay; format: functional, organism-based; settings: Human immunodeficiency virus 1, NL4-3, MT4
[2] = Cytotoxicity against human MT-4 cells assessed as reduction in cell viability by MTT assay; format: cell-based, MT4
[3] = Selectivity ratio of CC50 for human MT4 cells to EC50 for antiviral activity against HIV-1 NL4-3 infected in human MT4 cells; format: toxicity, cell-based; settings: read-out: Ratio CC50/EC50
[4] = test system: Human immunodeficiency virus 1; assay: Antiviral activity against HIV1 harboring RT K103N mutant infected in human MT4 cells assessed as protection against virus-induced cytopathic effect by MTT assay; format: functional, organism-based; settings: Human immunodeficiency virus 1, MT4
[5] = test system: Human immunodeficiency virus 1; assay: Antiviral activity against HIV1 harboring RT Y181C mutant infected in human MT4 cells assessed as protection against virus-induced cytopathic effect by MTT assay; format: functional, organism-based; settings: Human immunodeficiency virus 1, MT4
[6] = test system: Human immunodeficiency virus 1; assay: Antiviral activity against HIV1 harboring RT Y188L mutant infected in human MT4 cells assessed as protection against virus-induced cytopathic effect by MTT assay; format: functional, organism-based; settings: Human immunodeficiency virus 1, MT4
[7] = test system: Human immunodeficiency virus 1; assay: Antiviral activity against HIV1 harboring RT K103N/Y181C double mutant infected in human MT4 cells assessed as protection against virus-induced cytopathic effect by MTT assay; format: functional, organism-based; settings: Human immunodeficiency virus 1, MT4
[8] = test system: Human immunodeficiency virus 1; assay: Resistance index, ratio of EC50 for antiviral activity against HIV1 harboring RT K103N mutant infected in human MT4 cells to EC50 for antiviral activity against HIV1 NL4-3 infected in human MT4 cells; format: functional
[9] = test system: Human immunodeficiency virus 1; assay: Resistance index, ratio of EC50 for antiviral activity against HIV1 harboring RT Y181C mutant infected in human MT4 cells to EC50 for antiviral activity against HIV1 NL4-3 infected in human MT4 cells; format: functional
[10] = test system: Human immunodeficiency virus 1; assay: Resistance index, ratio of EC50 for antiviral activity against HIV1 harboring RT Y188L mutant infected in human MT4 cells to EC50 for antiviral activity against HIV1 NL4-3 infected in human MT4 cells; format: functional
[11] = test system: Human immunodeficiency virus 1; assay: Resistance index, ratio of EC50 for antiviral activity against HIV1 harboring RT K103N/Y181C double mutant infected in human MT4 cells to EC50 for antiviral activity against HIV1 NL4-3 infected in human MT4 cells; format: functional
[12] = biological target: Human immunodeficiency virus type 1 reverse transcriptase (Human immunodeficiency virus 1, UniProt Q72547); assay: Inhibition of RNA-dependent DNA polymerase activity of wild type recombinant HIV-1 His-tagged p66/p51 reverse transcriptase assessed as inhibition of [3H]dTTP incorporation using poly(rA)/oligo(dT) as templates incubated for 15 mins by MicroBeta scintillation counting method
[13] = biological target: Human immunodeficiency virus type 1 reverse transcriptase (Human immunodeficiency virus 1, UniProt Q72547, K103N); assay: Inhibition of RNA-dependent DNA polymerase activity of recombinant HIV-1 p66/p51 reverse transcriptase K103N mutant assessed as inhibition of [3H]dTTP incorporation using poly(rA)/oligo(dT) as templates incubated for 15 mins by MicroBeta scintillation counting method
[14] = Inhibition of RNA-dependent DNA polymerase activity of recombinant HIV-1 p66/p51 reverse transcriptase Y188L mutant assessed as inhibition of [3H]dTTP incorporation using poly(rA)/oligo(dT) as templates incubated for 15 mins by MicroBeta scintillation counting method; design: species or system Human immunodeficiency virus 1
[15] = Inhibition of RNA-dependent DNA polymerase activity of recombinant HIV-1 p66/p51 reverse transcriptase K103N/Y181C mutant assessed as inhibition of [3H]dTTP incorporation using poly(rA)/oligo(dT) as templates incubated for 15 mins by MicroBeta scintillation counting method; design: species or system Human immunodeficiency virus 1

Row | Structure (SMILES) | EC50 [1] [nM] | CC50 [2] [nM] | selectivity ratio [3] | EC50 [4] [nM] | EC50 [5] [nM] | EC50 [6] [nM] | EC50 [7] [nM] | Ratio EC50 [8] | Ratio EC50 [9] | Ratio EC50 [10] | Ratio EC50 [11] | IC50 [12] [nM] | IC50 [13] [nM] | IC50 [14] [nM] | IC50 [15] [nM]
1 | Cc1cc(C)cc(S(=O)(=O)c2c(C(=O)NCC(=O)NCc3ccccc3O)[nH]c3ccc(Cl)cc23)c1 | < 0.6 | > 47300 | > 78900 | 151 | 1.9 | 1.7 | 4620 | >251 | >3.2 | >2.8 | >7701 |  |  |  | 
2 | Cc1ccnc2c1NC(=O)c1cccnc1N2C1CC1 [NEVIRAPINE] | 112 | > 18800 |  | > 3760 | > 3760 | > 3760 | > 3760 |  |  |  |  |  |  |  | 
3 | Cc1cc(C)cc(S(=O)(=O)c2c(C(=O)NCCc3ccccc3O)[nH]c3ccc(Cl)cc23)c1 | < 0.7 | 23800 | > 34000 | < 0.7 | < 0.7 | 207 | 331 |  |  | >296 | >473 |  |  |  | 
4 | Cc1cc(C)cc(S(=O)(=O)c2c(C(=O)NC(C)c3ccccc3O)[nH]c3ccc(Cl)cc23)c1 (stereo not given) | < 0.7 | 21800 | 31100 | < 0.7 | 19 | 190 | 662 |  | >27 | >270 | >946 |  |  |  | 
5 | Cc1cc(C)cc(S(=O)(=O)c2c(C(=O)NCC(=O)NCc3cccc(O)c3)[nH]c3ccc(Cl)cc23)c1 | < 0.6 | > 47500 | > 79200 | 437 | 7.6 | 3950 | 3560 | >728 | >13 | >6590 | >5925 |  |  |  | 
6 | Cc1cc(C)cc(S(=O)(=O)c2c(C(=O)NCc3cccc(O)c3)[nH]c3ccccc23)c1 | < 0.7 | > 5200 | > 3640 | < 0.7 | 21 | 1270 | 1810 |  | >30 | >1808 | >2584 |  |  |  | 
7 | Cc1cc(C)cc(S(=O)(=O)c2c(C(=O)NCCc3ccc(O)cc3)[nH]c3ccc(Cl)cc23)c1 | < 0.7 | 27400 | > 39100 | 166 | 85 | > 27400 | 4310 | >276 | >141 | >39103 | 6152 |  |  |  | 
8 | NC(=O)c1[nH]c2ccc(Cl)cc2c1S(=O)(=O)c1ccccc1 [L-737126] |  |  |  |  |  |  | 8000 |  |  |  |  |  |  |  | 
9 | O=C1Nc2ccc(Cl)cc2[C@@](C#CC2CC2)(C(F)(F)F)O1 [EFAVIRENZ] |  | > 15800 |  |  |  |  | > 317 |  |  |  |  |  |  |  | 
10 | Cc1cc(C)cc(S(=O)(=O)c2c(C(=O)Nc3ccccc3O)[nH]c3ccc(Cl)cc23)c1 | < 0.7 | 19700 | > 28200 | > 0.7 | 20 | 4810 | > 19700 |  | >28 | >6881 | >28166 |  |  |  | 
11 | Cc1cc(C)cc(S(=O)(=O)c2c(C(=O)NC(C)C(N)=O)[nH]c3ccc(Cl)cc23)c1 (stereo not given) |  |  |  |  |  |  | 700 |  |  |  |  |  |  |  | 
12 | Cc1cc(C)cc(S(=O)(=O)c2c(C(=O)NCc3ccc(CO)cc3)[nH]c3ccc(Cl)cc23)c1 | < 0.7 | 31100 | > 44400 | < 0.7 | 22 |  | 3290 |  | >31 |  | >4703 | 38 | 79 | 178 | 188
13 | COc1cc(CNC(=O)c2[nH]c3ccc(Cl)cc3c2S(=O)(=O)c2cc(C)cc(C)c2)ccc1O | < 0.6 | 28700 | > 47800 | < 0.6 | 2 | 220 | 1120 |  | 3.3 | 367 | 1871 |  |  |  | 
14 | Cc1cc(C)cc(S(=O)(=O)c2c(C(=O)NC(C)c3cccc(O)c3)[nH]c3ccc(Cl)cc23)c1 (stereo not given) | < 0.7 | 16000 | > 22800 | < 0.7 | 10 | 166 | 600 |  | 14 | 237 | 857 |  |  |  | 
15 | Cc1cc(C)cc(S(=O)(=O)c2c(C(=O)Nc3ccc(O)cc3)[nH]c3ccc(Cl)cc23)c1 | < 0.7 | 18100 | > 25800 | < 0.7 | < 0.7 | 989 | 967 |  |  | >1413 | >1381 | 69 | 106 | 81 | 375
16 | Cc1cc(C)cc(S(=O)(=O)c2c(C(=O)NC(C)C(=O)NCc3ccccc3O)[nH]c3ccc(Cl)cc23)c1 (stereo not given) | < 0.6 | 14400 | > 23900 | 37 | 41 | 6560 | 5240 | >62 | >68 | 10925 | >8733 |  |  |  | 
17 | Cc1cc(C)cc(S(=O)(=O)c2c(C(=O)Nc3cccc(O)c3)[nH]c3ccc(Cl)cc23)c1 | < 0.7 | 24600 | > 35200 | < 0.7 | 44 | 455 | 6090 |  | >62 | >650 | >8698 |  |  |  | 
18 | Cc1cn([C@H]2C[C@H](N=[N+]=[N-])[C@@H](CO)O2)c(=O)[nH]c1=O [ZIDOVUDINE] | 3.7 | > 30600 | > 8270 |  |  |  | 16 | 4.3 | 1.6 | 8.9 |  |  |  |  | 
19 | Cc1cc(C#N)cc(C)c1Oc1nc(Nc2ccc(C#N)cc2)nc(N)c1Br [ETRAVIRINE] | 16.1 | > 23000 |  | 0.7 | 18 | 16 | 4.6 |  |  |  |  |  |  | 164 | 97
20 | Cc1cc(C)cc(S(=O)(=O)c2c(C(N)=O)[nH]c3ccc(Cl)cc23)c1 |  |  |  |  |  |  | 650 |  |  |  |  |  |  |  | 
21 | Cc1cc(C)cc(S(=O)(=O)c2c(C(=O)NCc3ccc(O)cc3)[nH]c3ccc(Cl)cc23)c1 | < 0.7 | 6250 | > 8930 | < 0.7 | < 0.7 | 661 | 704 |  |  | >944 | >1006 | 61 | 45 | 50 | 628
22 | Cc1cc(C)cc(S(=O)(=O)c2c(C(=O)Nc3ccc(CO)cc3)[nH]c3ccc(Cl)cc23)c1 | < 0.7 | 39600 | > 56600 | < 0.7 | 22 |  | 19500 |  | >31 |  | >27904 |  |  |  | 
23 | Cc1cc(C)cc(S(=O)(=O)c2c(C(=O)NCN3CCCC3)[nH]c3ccc(Cl)cc23)c1 |  |  |  |  |  |  | 300 |  |  |  |  |  |  |  | 
24 | Cc1cc(C)cc(S(=O)(=O)c2c(C(=O)NCc3ccc(O)c(O)c3)[nH]c3ccc(Cl)cc23)c1 | < 0.7 | 18300 | > 26200 | < 0.7 | 4.1 | 70 | 3240 |  | >5.9 | >100 | >4624 |  |  |  | 
25 | Cc1cc(C)cc(S(=O)(=O)c2c(C(=O)NCc3cc(O)ncn3)[nH]c3ccc(Cl)cc23)c1 | < 0.7 | > 53100 | > 75800 | < 0.7 | 0.7 | 106 | 14300 |  |  | >151 | >20385 |  |  |  | 
